These results are taken from US4923882A, “Novel amine derivatives, salts thereof and an anti-ulcer agent containing the same” (Toyama Chemical Co., Ltd., priority 1982, dated 1990).

For series [1], the system named is gastric acid secretion. Kind of series: Inhibitory effect on gastric acid secretion, perfused stomach preparation of anesthetized rat (histamine stimulated). In kind it is in vivo, Wistar strain rats. The settings on record: intravenous; for Duration: time from complete inhibition until pH of perfusate became 4; for ED100: Rattus norvegicus, cumulative, histamine 30 μg/kg/min, read-out: Dose for complete inhibition. The essentials:
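Urethane-anesthetized, 18 h-fasted male Wistar rats (200 to 250 g); stomach perfused at 1 ml/min with saline at pH about 10, with perfusate pH recorded continuously under iv histamine 30 μg/kg/min. Drug given iv cumulatively once secretion steady (pH 3.3±0.2), each dose after a plateau; n=3 per dose.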

The test system of series [2] is gastric acid secretion. Kind of series: Inhibitory effect on gastric acid secretion, pylorus ligation method (histamine). In kind it is in vivo, Wistar strain rats. The settings on record: Rattus norvegicus, read-out: Inhibition percentage (gastric acid secretion); for inhibition in vivo at 1 mg/kg: oral, histamine 25 mg/kg s.c. The procedure, abridged:
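Male Wistar rats (190–230 g, 5–6/group) fasted 35 h, dosed orally; pylorus ligated under ether 2 h later. Stomach removed after 3 h, gastric juice volume measured and acidity titrated with 0.1N NaOH to pH 7.0. Percent inhibition calculated against saline controls.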

Series [3] relates to isolated guinea pig atrium. Kind of series: Effect on isolated guinea pig atrium (histamine-induced heart rate). The arrangement: species or system Hartley guinea pig. The settings on record: for Potency ratio: Cimetidine = 1; for IC50: right atrium, 5×10^-6 M histamine, 30° C., read-out: ID50 (the source's name). The protocol: Hartley guinea pig (male, 300 to 400 g) was killed by blood-letting, immediately after which the heart was isolated, and the right atrium was separated in a Krebs-Henseleit solution and used as a preparation. […] The preparation was trained in a bath fluid, and after the heart rate became constant, 5×10^-6 M of histamine was administered. After the heart rate became constant, each drug was administered cumulatively.
The inhibition percentage was determined from the following equation: [formula] HRmin : heart rate before the administration of histamine HRmax : heart rate after the administration of histamine
HRx : heart rate at the time of the administration of each drug.
The number of experiments were five for each dose.

In series [4] the test system is Indomethacin ulcer. Kind of series: Anti-ulcer activity: Indomethacin ulcer. The settings on record: for ED50: 5 h; for Potency ratio: Cimetidine = 1. Format: in vivo, Wistar strain rats. The protocol: Six Wistar strain rats (male, 200 to 250 g) per group were starved for 24 hours, after which each drug was orally administered, and after 30 minutes, Indomethacin was injected subcutaneously at a dose of 30 mg/kg. After 5 hours, each rat was killed, and the stomach was removed and fixed with 3% formalin, after which the lengths of ulcers formed in the stomach was measured under the binocular stereoscopic microscope (10×), and the sum total of the lengths was taken as the ulcer index. To a control group was administered 0.5% Tween 80 physiological saline. The inhibition percentage was determined from the following equation: [formula]

Series [5] has as its system Mepirizole-induced duodenal ulcer. Kind of series: Anti-ulcer activity: Mepirizole-induced duodenal ulcer. Format: in vivo, Wistar strain rats. The settings on record: for rats died: in mepirizole test; for ED50: Rattus norvegicus, 18 h; for Potency ratio: Cimetidine = 1. The method, then:
(ii) Mepirizole-induced duodenal ulcer
A test was carried out according to the method of Okabe et al. [S. Okabe et al., Gastrcenterology, 80, 1241 (1981)].
Six Wistar strain rats (male, 200 to 250 g) per group were starved for 24 hours, after which each drug was orally administered, and after 30 minutes, mepirizole was injected subcutaneously at a dose of 200 mg/kg. After 18 hours, the stomach and duodenum were removed and fixed with 3% formalin, after which the areas and depths of the ulcers formed in the duodenum were measured under the binocular stereoscopic microscope (10×). The scores were given in 7 grades depending on the areas and depths of the ulcers, and the sum total of the scores was taken as the ulcer index. The scores were given as follows:
That is to say, the score is 0 at an ulcer area of 0 to 0.2 mm^2, 1 at 0.2 to 1.0 mm^2, 2 at 1 to 3 mm^2, 3 at 3 to 6 mm^2, 4 at 6 to 10 mm^2,5 at 10 mm^2 or more, the ulcer in the condition immediately before perforation is scored as 6, and the ulcer which had caused perforation is scored as 7.
(§1) To a control group was administered 0.5% Tween 80 physiological saline. The inhibition percentage was determined from the following equation: [formula]

Series [6] has as its system Stress ulcer induced by water-immersion. Kind of series: Anti-ulcer activity: Stress ulcer induced by water-immersion. The settings on record: for ED50: Rattus norvegicus, 15 h; for Potency ratio: Cimetidine = 1. Format: in vivo, Wistar rats. The protocol:
(iii) Stress ulcer induced by water-immersion
An experiment was carried out according to the method of Takagi et al. [K. Takagi et al., Jap.
Six Wistar rats (male, 230 to 280 g) per group were starved for 24 hours, after which each drug was orally administered. After 30 minutes, the rats were placed in stress cage, immersed in water at 23° C. to the depth of xiphoid, and allowed to stand therein for 15 hours. Thereafter, the stomach of each rat was removed and then fixed with 3% formalin, after which the areas of the ulcers formed were measured under the binocular stereoscopic microscope (10×), and the sum total of the areas was taken as the ulcer index. To a control group was administered 0.5% Tween 80 physiological saline.
The inhibition percentage was determined from the following equation: [formula]

In series [7] the test system is Reserpine ulcer. Kind of series: Anti-ulcer activity: Reserpine ulcer. In kind it is in vivo, Wistar strain rats. The settings on record: oral. The protocol: An experiment was carried out according to the method of Adami et al. [E. Adami et al., Arch. int.
Ten Wistar strain rats (male, 180 to 200 g) per group were starved for 30 hours, after which each drug was orally administered, and after 1 hour, reserpine was injected subcutaneously at a dose of 10 mg/kg. After 18 hours, the stomach was removed and fixed with 3% formalin, and thereafter the lengths of the ulcers formed in the stomach were measured with callipers. The measured values were converted to the scores described below, and the sum total of the scores was taken as the ulcer index.
That is to say, 1 to 5 pin point ulcers are scored as 1, 6 or more pin point ulcers are scored as 2, ulcers of 1 mm or less in length are scored as 1, ulcers of 1 to 2 mm in length are scored as 2, ulcers of 2 to 4 mm in length are scored as 4, and ulcers of 4 mm or more in length are scored as 8.
as §1

The mark [8] stands for this setting: Rattus norvegicus, po, read-out: Inhibition percentage.
Setting [9] is: Rattus norvegicus, oral, Indomethacin ulcer, read-out: ID50 (the source's name).
The mark [10] stands for this setting: Rattus norvegicus, oral, read-out: Inhibition percentage.
[11] abbreviates: Rattus norvegicus, 10 mg/kg, oral, read-out: Inhibition percentage.
[12] abbreviates: oral, mepirizole-induced duodenal ulcer, read-out: ID50 (the source's name).
Where [13] appears, read: oral, water-immersion stress ulcer, read-out: ID50 (the source's name).

Like-named read-outs stand apart in the source and are kept apart here.

For the compound `CN/C(=N/CCSCc1nc[nH]c1C)NC#N` [Cimetidine, reference compound], the Duration in series [1] is 16 min. Besides, the inhibition in vivo at 10 mg/kg was determined as 39% in series [2] (po) and 18% in series [4] (setting [8]). The inhibition in vivo at 30 mg/kg came out at 60% in series [2] (po) and 50% in series [4] (setting [8]). For the same compound, in series [2] (po), the inhibition in vivo at 90 mg/kg is 97%. Moreover, in series [3], the Potency ratio is reported as 1. For the same compound, the IC50 in series [3] came out at 3350 nM. The ED50 in series [4] (Rattus norvegicus, po, read-out: ID50) was 27.5 mg/kg; in series [5] (po, read-out: ID50), 162 mg/kg; in series [6] (po, read-out: ID50) it was 15.5 mg/kg. Besides, in series [4] (setting [8]), the inhibition in vivo at 100 mg/kg amounted to 97%. Also, the Inhibition percentage in series [5] (100 mg/kg, oral) stood at 43%; in series [5] (300 mg/kg, oral), 59%; in series [6] (10 mg/kg, oral), 22%; in series [6] (30 mg/kg, oral), 94%; in series [7] (100 mg/kg) it was 9.7%. Also, the rats died entry in series [5] (100 mg/kg, oral) is recorded as “Two of six rats died”; in series [5] (300 mg/kg, oral), “Four of six rats died”.

Turning to `CN(C)Cc1ccc(CSCCNC(=C[N+](=O)[O-])NCC(O)c2ccc(O)cc2)o1` (centres unmarked) [compound 3, N-{2-[[5-(dimethylamino)methyl-2-furyl]methylthio]ethyl}-N'-[2-hydroxy-2-(4-hydroxyphenyl)ethyl]-2-nitro-1,1-ethenediamine], in series [1], the ED100 came to 0.1 mg/kg. In addition, in series [1], the Duration is listed as 155 min. Also, the Potency ratio in series [3] amounted to 14.7; in series [4] it was 8.1; in series [5], 55.9; in series [6], 9.0. Further, the IC50 in series [3] was 228 nM. Moreover, the ED50 in series [4] (setting [9]) amounted to 3.4 mg/kg; in series [5] (setting [12]) it was 2.9 mg/kg; in series [6] (setting [13]), 1.72 mg/kg. Moreover, the inhibition in vivo at 1 mg/kg in series [4] (setting [10]) amounted to 20%. Moreover, the inhibition in vivo at 3 mg/kg in series [4] (setting [10]) turned out to be 51%. In series [4] (setting [11]), the inhibition in vivo at 10 mg/kg came out at 71%. Further, the Inhibition percentage in series [5] (1 mg/kg, oral) is 12%; in series [5] (3 mg/kg, oral), 49%; in series [5] (10 mg/kg, oral) it was 97%; in series [6] (1 mg/kg, oral), 12%; in series [6] (3 mg/kg, oral), 73%; in series [6] (10 mg/kg, oral) it was 83%.

With `COc1cccc(C(O)CNC(=C[N+](=O)[O-])NCCSCc2cc(C)c(CN(C)C)s2)c1` (centres unmarked) [compound 9, N-{2-[[5-(dimethylamino)methyl-4-methyl-2-thienyl]methylthio]ethyl}-N'-[2-hydroxy-2-(3-methoxyphenyl)ethyl]-2-nitro-1,1-ethenediamine], in series [1], the ED100 was determined as 0.2 mg/kg. This compound displayed a Duration in series [1] of 190 min. Also, the figures for the inhibition in vivo at 1 mg/kg in series [2] and in series [4] (setting [10]) were 75% and 70%, respectively. For the same compound, the Potency ratio was found to be 13.7 in series [3], 39.3 in series [4], 37.7 in series [5] and 9.1 in series [6]. Moreover, the IC50 in series [3] was found to be 245 nM. Also, the ED50 in series [4] (setting [9]) is 0.7 mg/kg; in series [5] (setting [12]), 4.3 mg/kg; in series [6] (setting [13]) it was 1.7 mg/kg; in series [7] (Rattus norvegicus, 18 h, reserpine ulcer, read-out: ID50 (the source's name)), 1.8 mg/kg. In addition, the inhibition in vivo at 0.3 mg/kg in series [4] (setting [10]) worked out at 6%. Further, the inhibition in vivo at 3 mg/kg in series [4] (setting [10]) amounted to 85%. Further, the inhibition in vivo at 10 mg/kg in series [4] (setting [11]) turned out to be 97%. In addition, the Inhibition percentage is reported as -8% in series [5] (1 mg/kg, oral); 33% in series [5] (3 mg/kg, oral); 93% in series [5] (10 mg/kg, oral); 33% in series [6] (1 mg/kg, oral); 66% in series [6] (3 mg/kg, oral); 86% in series [6] (10 mg/kg, oral). The Inhibition percentage came out at 29% in series [7] (1 mg/kg) and 69% in series [7] (3 mg/kg).

For the compound `O=[N+]([O-])C=C(NCCCOc1cccc(CN2CCCCC2)c1)NCC(O)c1ccc(F)cc1` (centres unmarked) [compound 15, N-[2-(4-fluorophenyl)-2-hydroxyethyl]-2-nitro-N'-[3-(3-piperidinomethylphenoxy)propyl]-1,1-ethenediamine], the ED100 in series [1] is 0.06 mg/kg. The compound further displayed a Duration in series [1] of 180 min. Moreover, the figures for the inhibition in vivo at 1 mg/kg in series [2] and in series [4] (setting [10]) were 77% and 88%, respectively. Besides, the Potency ratio is 15.4 in series [3], 68.8 in series [4], 36.0 in series [5] and 11.5 in series [6]. Further, the IC50 in series [3] is 218 nM. The ED50 came to 0.4 mg/kg in series [4] (setting [9]), 4.5 mg/kg in series [5] (setting [12]) and 1.35 mg/kg in series [6] (setting [13]). Further, in series [4] (setting [10]), the inhibition in vivo at 0.3 mg/kg was determined as 37%. The inhibition in vivo at 3 mg/kg in series [4] (setting [10]) is 92%. The inhibition in vivo at 10 mg/kg in series [4] (setting [11]) came out at 98%. Besides, the Inhibition percentage in series [5] (1 mg/kg, oral) stood at 2%; in series [5] (3 mg/kg, oral), 29%; in series [5] (10 mg/kg, oral) it was 93%; in series [6] (1 mg/kg, oral) it was 42%; in series [6] (3 mg/kg, oral) it was 69%; in series [6] (10 mg/kg, oral) it was 83%.
